{"source": "patent US20220041691A1", "about": "“METHODS FOR DIAGNOSING OR TREATING POST-TRAUMATIC STRESS DISORDER, AND COMPOSITIONS THEREFOR” (Centre for Addiction and Mental Health, priority 2018, published 2022)", "key": {"[1]": {"system": "fear-conditioned mice", "assay": "Cued fear conditioning, peptide injected into right amygdala or motor cortex", "format": "in vivo, mouse", "experimental": "Next, testing was performed to determine whether disrupting the GR-FKBP51 complex could reduce freezing behaviors in fear-conditioned mice as a model for PTSD-related symptoms. […] The animals were then subjected to two days of extinction, where the same cues were presented without foot shock, before cued fear memory was assessed. One hour before the fear memory assessment, animals were injected with either control peptide (TAT) or treatment peptide (TAT-GRpep) into the right amygdala. […] However, two-way ANOVA confirmed a significant effect of the cue (F1, 46=10.387, p<0.01) and peptide (F1,46=7.708, p<0.01). […] Both treatment groups reacted similarly to the cue (p=NS; FIG. 3E).\nSome of the animals were later subjected to implantation of cannula into either amygdala (AP−1.5, LM−3.0, DV−4.8) or motor cortex (AP+2.1, LM−2.0, DV−1.0). Following surgeries, animals were allowed one week to recover before subjected to any experimental procedures.\nAnimals were first given a five-minute habituation to the apparatus (Habitest, Colbourne Instruments). Then, animals were exposed to 30 seconds of cue exposure (an in-house white light), which co-terminated with one second of foot-shock (0.5 mA). […]\nThe expression of fear (in a different context from training) was assessed 24 hours after the last extinction training. […] The duration of freezing behaviors was recorded by a blinded experimenter. […]"}, "[2]": {"system": "nuclear GR", "assay": "Nuclear protein isolation, nuclear GR in brain of fear-conditioned mice", "format": "in vivo, mouse", "conditions": "3 nmol/g i.p, vs TAT alone or saline, p<0.05, n=4", "experimental": "Nuclear protein isolation assays were performed in acute mouse brain slices or mouse brain tissue using the Nuclear Protein Extraction Kit (Bio Basic Inc., Amherst, N.Y.). Briefly, after treatment with TAT or TAT-GRpep, mouse brain slices were harvested for nuclear protein extraction according to the manufacturer's instructions."}, "[3]": {"molecular_target": "T1, GR-FKBP51 complex (Mus musculus, UniProt Q64378)", "T1 construct": "from tissue; host or cells: C57Bl/6 mouse brain (acute slices; whole-brain lysate) and blood lymphocytes", "T1 sequence (Q64378 1-456)": "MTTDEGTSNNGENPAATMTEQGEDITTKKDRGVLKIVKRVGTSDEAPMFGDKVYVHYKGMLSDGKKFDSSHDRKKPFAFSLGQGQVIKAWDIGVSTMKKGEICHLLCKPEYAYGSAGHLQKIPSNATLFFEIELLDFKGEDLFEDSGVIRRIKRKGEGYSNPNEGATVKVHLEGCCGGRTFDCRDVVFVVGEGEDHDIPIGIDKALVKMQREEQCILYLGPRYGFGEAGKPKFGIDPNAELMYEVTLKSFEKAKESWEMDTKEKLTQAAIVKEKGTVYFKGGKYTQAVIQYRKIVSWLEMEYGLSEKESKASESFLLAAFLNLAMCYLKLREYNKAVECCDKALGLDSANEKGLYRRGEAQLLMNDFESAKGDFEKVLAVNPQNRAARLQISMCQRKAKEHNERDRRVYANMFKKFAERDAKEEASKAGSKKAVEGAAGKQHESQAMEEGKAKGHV", "assay": "Co-immunoprecipitation of GR-FKBP51 complex in brain and lymphocyte lysate of fear-conditioned mice injected with peptide", "format": "in vivo", "experimental": "Furthermore, testing was performed to determine whether disrupting the GR-FKBP51 complex reduced consolidation of cued fear memory. Thus, TAT or TAT-GRpep was administered two hours after the end of fear conditioning training (FIG. 4C), before five consecutive daily extinction sessions of cue exposure without shock.\n(§1) Co-immunoprecipitation and Western blot analyses were performed as previously described.^24, 25, 26 For co-immunoprecipitation, 500˜1000 μg solubilized protein was extracted from whole mouse brain and incubated with primary antibody or control IgG (2˜4 μg) for 4 hrs at 4° C., followed by the addition of 25 μl protein A/G plus agarose (Santa Cruz Biotechnology) for 12 hrs. Pellets were washed, boiled for 5 min in SDS sample buffer and subjected to SDS-PAGE. 50˜100 μg of total protein extract was used as control in each experiment. After transfer of proteins into nitrocellulose, membranes were Western blotted with the primary antibodies. The intensity of protein level was quantified by densitometry (software: ImageLab, Bio-Rad)."}, "[4]": {"system": "GR-FKBP52 complex", "assay": "Co-immunoprecipitation of GR-FKBP52 complex in brain of fear-conditioned mice", "format": "in vivo", "conditions": "fear-conditioned mouse brain, 3 nmol/g i.p; vs TAT alone or saline; p<0.05, n=3", "experimental": "as §1"}, "[5]": {"system": "GR and FKBP52 colocalization in primary neurons", "assay": "Immunocytochemistry of GR and FKBP52 in primary mouse neurons", "format": "cell-based", "experimental": "Cortical tissues from embryonic day (E14) mouse brains were dissected out, incubated with 0.25% trypsin for 15 min at 37° C., and dissociated by mechanical trituration. Neurons were then plated at a desired density onto glass coverslips previously coated with 0.1 mg/ml poly-d-lysine, and grown in Neurobasal medium with 1× Glutamax, 1×B27, 100 U/ml penicillin and 100 μg/ml streptomycin in an incubator (37° C., 5% CO2). Either 10 μM of TAT-GRpep, 10 μM TAT-control peptide or saline were added in culture plates for 45 min in advance at 8 days in vitro (8 DIV).\nCultured neurons were fixed in 4% PFA/4% sucrose, permeabilized with 0.1M PBS containing 0.1% Triton X-100 for 10 min, and blocked for 1 hour with 1% bovine serum albumin in PBS at room temperature. They were incubated with primary antibodies overnight at 4° C. and secondary antibodies for 1 hour at room temperature. The following primary antibodies were used: anti-GR (1:200; Thermo), anti-FKBP51 (1:200; Abcam) and anti-FKBP52 (1:200; Abcam). […] DAPI was used to stain cell nuclei."}}, "note": "“Also recorded” adds a separate entry of the source.", "data": [{"sequence": "GRKKRRQRRRPQSPWRSDLLIDENCLL (Amino Acid Sequence of TAT-GRpep Peptide)", "values": [{"measurement": "freezing behavior, cued fear memory assessment", "setting": "[1]; injected into right amygdala one hour before assessment, after two days of extinction, vs control peptide, p<0.01", "value": "significantly lower level of freezing behavior; also recorded: significantly less freezing than controls"}, {"measurement": "freezing behavior, cued fear memory assessment", "setting": "[1]; peptide infused into motor cortex instead of amygdala, p=NS", "value": "did not affect freezing"}, {"measurement": "nuclear GR level / GR nuclear localization", "setting": "[2]", "value": "higher levels of nuclear GR; also recorded: increased"}, {"measurement": "GR-FKBP51 complex level in brain (co-immunoprecipitation)", "setting": "[3]; brain lysate of fear-conditioned mice injected with TAT or TAT-GRpep, p<0.05, n=3", "value": "able to block the increase of GR-FKBP51 complex; also recorded: disrupt the GR-FKBP51 complex"}, {"measurement": "GR-FKBP51 complex level in lymphocyte lysate / peripheral blood (co-immunoprecipitation)", "setting": "[3]; lymphocyte lysate from blood of fear-conditioned mice, p<0.01 vs TAT, n=4", "value": "able to disrupt the GR-FKBP51 complex"}, {"measurement": "GR-FKBP52 complex (FKBP52 co-immunoprecipitated by GR antibody)", "setting": "[4]", "value": "more FKBP52 was co-immunoprecipitated by GR antibody; also recorded: significant increases in GR-FKBP52 complex levels"}, {"measurement": "nuclear GR levels", "setting": "[5]; primary mouse neuron cultures, confocal microscope", "value": "markedly increased nuclear GR levels"}, {"measurement": "nuclear GR-FKBP52 colocalization", "setting": "[5]; primary neurons 8 DIV, 10 μM, 45 min", "value": "marked increase in nuclear GR-FKBP52 colocalization"}, {"measurement": "colocalization between GR and FKBP52", "setting": "[5]; primary neurons 8 DIV, 10 μM, 45 min, vs saline and control peptide", "value": "significantly more colocalization between GR and FKBP52; also recorded: co-localized more"}]}]}
